The numbers were not newly measured in patent US20060099690A1, “Extraction, purification and conversion of flavonoids from plant biomass” (Her Majesty the Queen in Right of Canada, as Repre, priority 2002, published 2006), which cites them from elsewhere.

The structures appear in SMILES notation.

For data set [1], the system named is mouse hippocampal cell line HT-22 and rat primary neurons. As to conditions: HT-22 cells and rat primary neurons.
For data set [2] the following is noted: four hours after a meal; hydrolyzed plasma; 3'- and 4'-methylquercetin.
The subject of another data set is serum triglycerides. The following applies: 0.5% quercetin in diet; mice or rats.
The test system of another data set is pain transmission. The following applies: antinociceptive activity.

`O=c1cc(-c2ccc(O)cc2)oc2cc(O)cc(O)c12` [apigenim]: in data set [1], the “protection from oxidative stress caused by glutamate” value (from here on “protection”) is “inactive”.
Consider `O=c1c(O)c(-c2ccc(O)c(O)c2)oc2cc(O)ccc12` [fisetin], for which the “protection” value in data set [1] was “quite protective”.
As to `O=c1c(O[C@@H]2O[C@H](CO)[C@@H](O)[C@H](O)[C@H]2O)c(-c2ccc(O)c(O)c2)oc2cc(O)cc(O)c12` [isoquercitrin, quercetin-3-O-beta glycoside], the “total concentration of metabolites in the plasma” value (“total concentration” below) in data set [2] was 33.2 µM.
As to `O=c1c(O)c(-c2ccc(O)cc2)oc2cc(O)cc(O)c12` [kaempferol], the “protection” value in data set [1] is recorded as “quite protective”.
Regarding `O=c1c(O)c(-c2ccc(O)c(O)c2)oc2cc(O)cc(O)c12` [quercetin], in the data set with serum triglycerides, the “effect on serum triglycerides” value is given as “significant lowering”. The “dose with the same effect as 2.5 mg of morphine sulfate/Kg” value in the data set with pain transmission was 50 mg/Kg body weight. The “total concentration” value in data set [2] was 11.2 µM. The “protection” value in data set [1] is given as “quite protective”.
As to `C[C@@H]1O[C@@H](Oc2c(-c3ccc(O)c(O)c3)oc3cc(O)cc(O)c3c2=O)[C@H](O)[C@H](O)[C@H]1O` [quercitrin, quercetin 3-rhamnoside, reference compound], the “total concentration” value in data set [2] is reported as “failed to detect any metabolites”.
In the case of `C[C@@H]1O[C@@H](OC[C@H]2O[C@@H](Oc3c(-c4ccc(O)c(O)c4)oc4cc(O)cc(O)c4c3=O)[C@H](O)[C@@H](O)[C@@H]2O)[C@H](O)[C@H](O)[C@H]1O` [rutin], the “total concentration” value in data set [2] is 2.5 µM.
